One data set addresses T1, TRPC7 (Homo sapiens, UniProt Q9HCX4).
T1 construct: expressed in transfected cells; host or cells: HEK293 (transient transfection)
T1 sequence (Q9HCX4 1-862): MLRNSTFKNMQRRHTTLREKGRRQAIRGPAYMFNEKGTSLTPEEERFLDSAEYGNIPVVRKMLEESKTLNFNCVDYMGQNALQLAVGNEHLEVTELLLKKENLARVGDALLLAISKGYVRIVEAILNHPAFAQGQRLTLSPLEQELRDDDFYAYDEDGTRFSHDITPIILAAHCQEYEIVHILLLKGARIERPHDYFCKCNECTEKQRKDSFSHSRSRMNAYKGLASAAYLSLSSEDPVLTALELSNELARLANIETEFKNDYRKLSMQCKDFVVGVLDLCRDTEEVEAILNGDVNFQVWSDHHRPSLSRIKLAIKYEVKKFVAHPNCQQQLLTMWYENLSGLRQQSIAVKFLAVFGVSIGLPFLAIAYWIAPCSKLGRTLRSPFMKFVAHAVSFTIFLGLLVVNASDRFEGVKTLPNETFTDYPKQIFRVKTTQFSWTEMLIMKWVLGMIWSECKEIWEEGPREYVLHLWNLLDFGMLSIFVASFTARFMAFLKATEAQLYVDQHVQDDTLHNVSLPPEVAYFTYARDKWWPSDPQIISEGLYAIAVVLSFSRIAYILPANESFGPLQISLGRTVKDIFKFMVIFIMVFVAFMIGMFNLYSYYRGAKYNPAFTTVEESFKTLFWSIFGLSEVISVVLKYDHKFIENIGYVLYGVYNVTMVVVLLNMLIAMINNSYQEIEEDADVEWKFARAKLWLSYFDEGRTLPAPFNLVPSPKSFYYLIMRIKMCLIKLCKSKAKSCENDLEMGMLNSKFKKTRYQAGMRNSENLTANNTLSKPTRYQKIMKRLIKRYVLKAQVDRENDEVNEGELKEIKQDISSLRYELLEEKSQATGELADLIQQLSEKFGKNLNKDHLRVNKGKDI
The data set can be described thus: Carbachol (Cch)-induced Sr2+ entry in Fura2-loaded HEK293 cells overexpressing TRPC7. The settings on record: versus DAG-mediated activation, FIG. 2D, E. The class given is cell-based. The source says:
Inhibition of GPCR-mediated TRPC activation. Since TRPC4 and TRPC5 are not activated by DAG, we utilized carbachol (Cch)-induced Sr^2+ entry to determine their sensitivity to ELP-004. Since Cch drives ER Ca^2+ release, Cch-induced Ca^2+ entry includes both store-operated and TRPC-mediated components. To specifically measure ion entry through TRPC channels, we took advantage of the lack of ion selectivity of TRPC channel and substituted Sr^2+ for Ca^2+ as previously described^7. As expected, Cch stimulated rapid ER Ca^2+ release immediately upon addition in both TRPC4- and TRPC5-expressing cells (FIG. 2A,B). The subsequent addition of Sr^2+ (3 mM) lead to a significant increase in Fura ratio with a substantially larger response in TRPC5-expressing than TRPC4-expressing cells. […] Therefore, we assessed inhibition of TRPC7 by ELP-004 using the Cch Sr^2+ assay (FIG. 2D, E). […]
TRPC activity assay—Cells grown on glass coverslips were incubated in a cation-safe buffer (107 mM NaCl, 7.2 mM KCl, 1.2 mM MgCl2, 11.5 mM Glucose, 20 mM HEPES-NaOH, 1 mM CaCl2), pH 7.2) and loaded with Fura2-acetoxymethylester (Fura2-AM; 2 μM) for 30 min at 24° C. as previously described^10,11. […] Ca^2+/Sr^2+ measurements were taken using a Leica DMI 6000B fluorescence microscope controlled by Slidebook software (Intelligent Imaging Innovations, Denver, CO). […]

Data set [1] concerns Mouse splenic monocytes. The data set can be described thus: Osteoclast differentiation of mouse splenic monocytes. It counts as cell-based. Particulars: 21 days of culture with RANKL+m-CSF; 100 nM ELP-004. How it is done: ELP-004 blocks TNF-α-induced osteoclast differentiation. Mouse splenic monocytes were induced to differentiate into osteoclasts. Results were obtained of osteoclast cells after 21 days of culture with RANKL+m-CSF alone or with the addition of 100 nM ELP-004. […] Thus, ELP-004 inhibits osteoclastogenesis.

The test system of data set [2] is Mouse splenic monocytes. The data set can be described thus: Osteoclast resorption (pit formation) on Corning osteo-assay surface plates. The class given is cell-based. Particulars: 1 ng/ml RANKL, 2 ng/ml TNFα, 50 ng/ml m-CSF; 7, 14 or 21 days; 100 nM ELP-004. How it is done: Mouse splenic monocytes were induced to differentiate by the addition of 1 ng/ml RANKL, 2 ng/ml TNFα and 50 ng/ml m-CSF. The panels of FIG. 6 show a representative photomicrograph of cells after 7, 14, or 21 days of culture on Corning osteo-assay surface plates with RANKL+mCSF+TNFα or with the addition of 100 nM ELP-004.

The nature of data set [3]: Metabolite formation in mouse liver S9. The settings on record: cofactors-fortified mouse liver S9, 37 degrees centigrade, 1 hour; LC-MS/MS. It counts as in vitro ADME. How it is done: Drug Synthesis—ELP-004 (N-MeDCPA) was synthesized as described in U.S. patent Ser. No. 10/682,320. […] Metabolites formed after incubations using either cofactors-fortified mouse or human liver S9 (mouse liver S9; human liver S9) at 37 degrees centigrade for 1 hour. The reaction was quenched by ultracentrifugation. The supernatant was analyzed using LC-MS/MS analysis using Accela LC (Thermo Scientific, Inc., San Jose, CA) coupled to an LTQ LX or to LTQ Orbitrap XL.
ELP-004 is N-(3,4-dichlorophenyl)-N-methylpropanamide. The core structure of ELP-004 is an aniline compound. Aniline compounds, generally, have a high risk of forming reactive metabolites. ELP-004 was specifically designed to preclude formation of reactive metabolites. Methylation of the amide nitrogen improves metabolic stability.

Data set [4] can be described thus: Ability to cross the blood brain barrier. How it is done: ELP-004 was evaluated for its ability to cross the blood brain barrier. […] Other medications, such as for example but not limited to bupropion are known to cause problems due to dopamine transporter binding.

Structures are written as SMILES.

In the case of `CCC(=O)N(C)c1ccc(Cl)c(Cl)c1` [ELP-004, N-(3,4-dichlorophenyl)-N-methylpropanamide], the “increase in sensitivity to ELP-004 in the Cch Sr2+ assay” value at TRPC7 is on record as 3 order of magnitude. Besides, the “development of multinucleated osteoclasts” value with Mouse splenic monocytes [1] is listed as “inhibited development of multinucleated osteoclasts”. The “pit formation (osteoclast resorption)” value in the data set on Mouse splenic monocytes [2] was “inhibited pit formation”. For the same compound, the “formation of reactive or toxic metabolites” value in data set [3] is listed as “No reactive or toxic compounds were formed”. For the same compound, the “crossing of the blood brain barrier” value in data set [4] is “does not cross the blood brain barrier”.

The record behind these values is patent US20240058283A1, “THE MODE OF ACTION OF N-MeDCPA ON TRPC CHANNELS” (West Virginia University Board of Governors on Behalf of …, priority 2022, published 2024).
